Assay results: ChEMBL document CHEMBL4725372, “Rational Design of Suprastat: A Novel Selective Histone Deacetylase 6 Inhibitor with the Ability to Potentiate Immunotherapy in Melanoma Models” (J Med Chem, 2020)
Active and inactive are the calls of the source. The calls are words filed in the database; no cut-off is given here.

Legend:
[1] = tested on: Mus musculus; test: Immunomodulatory activity in C57BL/6 mouse harboring mouse SM1 cells assessed as increase in natural killer cells at 25 mg/kg, ip dosed 5 days per week before by flow cytometry; assay type: functional, organism-based; conditions: time 5.0 day/week
[2] = tested on: Mus musculus; test: Immunomodulatory activity in C57BL/6 mouse harboring mouse SM1 cells assessed as increase in M1/M2 macrophages ratio at 25 mg/kg, ip dosed 5 days per week by flow cytometry; assay type: functional, organism-based; conditions: time 5.0 day/week
[3] = target: T1, Protein deacetylase HDAC6 (Mus musculus) (UniProt Q9Z2V5); test: Inhibition of HDAC6 in INFgamma and LPS-induced mouse bone marrow derived macrophages assessed as decrease in IL10 gene expression at 5 uM by quantitative PCR analysis; assay type: tissue-based; conditions: Macrophage
T1 sequence (whole entry): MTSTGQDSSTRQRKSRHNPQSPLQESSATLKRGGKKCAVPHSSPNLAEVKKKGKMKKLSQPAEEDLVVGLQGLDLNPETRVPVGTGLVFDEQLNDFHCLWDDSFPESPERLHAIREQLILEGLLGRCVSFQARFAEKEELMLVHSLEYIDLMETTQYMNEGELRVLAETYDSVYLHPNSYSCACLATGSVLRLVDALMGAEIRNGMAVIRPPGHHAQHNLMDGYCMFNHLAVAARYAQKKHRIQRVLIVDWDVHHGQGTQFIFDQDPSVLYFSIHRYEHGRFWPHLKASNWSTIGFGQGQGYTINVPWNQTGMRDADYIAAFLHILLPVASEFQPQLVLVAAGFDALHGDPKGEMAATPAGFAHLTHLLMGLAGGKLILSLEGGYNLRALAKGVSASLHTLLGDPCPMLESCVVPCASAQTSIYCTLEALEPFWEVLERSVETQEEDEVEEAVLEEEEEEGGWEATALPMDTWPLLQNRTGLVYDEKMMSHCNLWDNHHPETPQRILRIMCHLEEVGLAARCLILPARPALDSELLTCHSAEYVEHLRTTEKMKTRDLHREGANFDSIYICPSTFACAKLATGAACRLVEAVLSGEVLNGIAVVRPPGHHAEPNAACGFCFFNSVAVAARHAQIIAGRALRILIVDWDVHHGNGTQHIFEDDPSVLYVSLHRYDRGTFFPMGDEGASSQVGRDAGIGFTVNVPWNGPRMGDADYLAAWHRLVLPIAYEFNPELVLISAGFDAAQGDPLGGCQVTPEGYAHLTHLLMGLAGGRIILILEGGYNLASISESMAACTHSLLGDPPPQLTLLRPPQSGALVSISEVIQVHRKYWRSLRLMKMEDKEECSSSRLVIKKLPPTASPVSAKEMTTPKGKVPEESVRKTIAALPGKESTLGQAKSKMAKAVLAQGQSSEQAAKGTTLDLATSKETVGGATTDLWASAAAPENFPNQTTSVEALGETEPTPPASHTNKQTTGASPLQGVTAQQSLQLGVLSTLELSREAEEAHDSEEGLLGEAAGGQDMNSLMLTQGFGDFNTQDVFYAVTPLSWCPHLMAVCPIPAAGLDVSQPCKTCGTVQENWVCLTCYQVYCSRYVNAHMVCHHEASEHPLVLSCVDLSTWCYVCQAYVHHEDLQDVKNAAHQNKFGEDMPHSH

[4] = tested on: SM1; test: Cytotoxicity in mouse SM1 cells assessed as reduction in cell viability up to 25 uM; assay type: functional, cell-based; conditions: dose microM <=25

inhibition [3]: Active
SMILES: NCc1ccc(NC(=O)N(CCCCO)Cc2ccc(C(=O)NO)cc2)cc1
Activity [1]: Active
Activity [2]: Active
Activity [4]: inactive
